These results are taken from patent US20210047304A1, “Bromodomain Inhibitors” (AbbVie Inc., priority 2016, published 2021).

This assay has as its target BRD4 (BDI_K57-E168) (Homo sapiens, UniProt O60885). The assay is described as follows: TR-FRET bromodomain binding assay, BRD4 BDI. On the technique in general: In TR-FRET formats the signal depends on donor and acceptor labels being close together.

Broadly, the Ki is the dissociation constant of the complex between target and ligand, obtained from inhibition or displacement. Read a low Ki as higher affinity. On to `Cc1cc(F)cc(C)c1Oc1ncc(C(C)(C)O)cc1-c1cn(C)c(=O)cc1O[C@H]1CC[C@H](N2CCCC2=O)CC1` [Example 60, 2′-(4-fluoro-2,6-dimethylphenoxy)-5′-(2-hydroxypropan-2-yl)-1-methyl-4-{[trans-4-(2-oxopyrrolidin-1-yl)cyclohexyl]oxy}[3,3′-bipyridin]-6(1H)-one], for which the Ki is 4.66 µM.
Take `Cc1cc(F)cc(C)c1Oc1ccc(C(C)(C)O)cc1-c1cn(C)c(=O)cc1O[C@H]1CC[C@H](N2C(=O)CCC2C)CC1` (relative stereo) [Example 42, 5-[2-(4-fluoro-2,6-dimethylphenoxy)-5-(2-hydroxypropan-2-yl)phenyl]-1-methyl-4-{[trans-4-(2-methyl-5-oxopyrrolidin-1-yl)cyclohexyl]oxy}pyridin-2(1H)-one]: the Ki came out at 3.84 µM.
